# Assay results: patent publication US20230310441A1, “TREATMENT FOR SCHIZOPHRENIA” (TAKEDA PHARMACEUTICAL COMPANY, priority 2020, published 2023)
# Assays:
# cerebral blood flow = assay: Average global cerebral blood flow (pCASL MRI); assay type: in vivo, human
# Description: Whole brain maps of regional cerebral blood flow (CBF) were obtained using an ASL methodology previously reported (Hawkins et al., 2018; Dai et al., 2008). Briefly, images were acquired using a pseudo-continuous Arterial Spin Labelling sequence (pCASL) with a multi-shot, segmented 3D stack of axial spirals (8-arms) readout with a resultant spatial resolution of 2×2×3 mm. Three control-label pairs were used to derive a perfusion weighted difference image. The labelling RF pulse had duration of 1.5 s and a post-labelling delay of 1.5 s. The sequence included background suppression for optimum reduction of the static tissue signal. A Proton Density image was acquired in 48 s using the same acquisition parameters to compute the CBF map in standard physiological units (mL blood/100 g tissue/min). Two runs were acquired per visit and averaged following preprocessing.
# The T2-weighted image was co-registered to the T1-weighted image prior to creation of the DARTEL template, and each session's Proton Density image was then co-registered to the T2-weighted image. The parameters for this transformation were then applied to the CBF maps, and the DARTEL flow field applied to normalize to CBF maps to MNI space, before smoothing with a 6 mm FWHM kernel.
# Average global cerebral blood flow (CBF) was extracting using an SPM MNI whole brain mask in MarsBar, and was analyzed at each time point with a mixed two-way ANOVA (treatment (placebo/drug) within subject factor, dose level (40 mg/160 mg) between-subject factor) (FIG. 4).
# [1] = Phase 1 FIH study: safety and tolerability (TEAEs) in healthy participants; assay type: in vivo, human
# Experimental: A phase 1 first-in-human (FIH) study was conducted at a single site in the United States to evaluate the safety, tolerability, and pharmacokinetics (PK) of Compound (I). Specifically, Compound (I) was tested to evaluate the safety, tolerability, and PK of single and multiple doses in healthy participants and as add-on therapy to antipsychotics in participants with stable schizophrenia. The phase I study also assessed the oral bioavailability of Compound (I) in healthy participants administered a tablet formulation compared to an oral suspension formulation in a fasted state, as well the effect of a high-fat, high-calorie meal on the PK of a single dose of a tablet formulation of Compound (I). Additional exploratory pharmacodynamic analysis was undertaken in patients with stable schizophrenia to inform future studies.
# Cohorts in Parts 1 and 2 were randomized to receive either Compound (I) or placebo in a 6:2 ratio. Cohorts in Part 3 were randomized in a 1:1 ratio, while the cohort in Part 4 was randomized in a 2:1 ratio.
# Part 1 was a double-blind, SRD study in healthy adults, utilizing an alternate panel design (cohorts 1, 2) and sequential panel design (cohorts 3-5). Cohorts 1 and 2 were part of a two-period, alternating-panel, double-blind study of Compound (I) administered as an oral suspension (5 mg, 10 mg, 20 mg, or 40 mg) or matched placebo, with a washout period of at least 7 days between treatment periods. Cohorts 3-5 were part of a sequential-panel, double-blind study to evaluate the SRDs of Compound (I) (80, 120, or 160 mg, respectively) or matched placebo. Although planned, all subsequent doses after the dose of 80 mg were determined based on emerging safety, tolerability, and PK data from the preceding cohorts.
# In Part 2, participants received either placebo on all dosing days or a loading dose of Compound (I) on Day 1 and a maintenance dose of half the initial dose on Days 8, 15 and 22, administered as an oral suspension. Baseline measurements were obtained on Day −2, and study-specific measurements were obtained following oral dose administrations on Days 1, 8, 15, and 22.
# Part 3 was a randomized, open-label, single-dose, parallel design study to evaluate the bioavailability of a Compound (I) tablet formulation relative to a Compound (I) oral suspension formulation and the effect of food on the PK in healthy participants. The immediate release tablet contained mannitol, microcrystalline cellulose, and other commonly used excipients. Participants were randomized 1:1 to receive a single 40 mg dose of Compound (I) as a tablet after either 10 h overnight fast, or 30 min after beginning ingestion of a high-fat, high-calorie breakfast.
# Safety measurements used in the phase 1 study included treatment-emergent adverse events (TEAEs), physical examinations, weight, height, BMI, vital signs, clinical laboratory evaluations, pregnancy monitoring, and ECG procedures.
# TEAEs were defined as any adverse event that occurred or worsened after receiving the first dose of Compound (I) and within 6 weeks after the last dose of Compound (I). Participants experiencing two or more different TEAEs were counted only once. Frequent TEAEs were defined as adverse events that occurred in at least two participants in any treatment. Participants were evaluated with respect to mood and alertness (BL-VAS) and suicidality (C-SSRS).
# [2] = Separate single dose oral study: half-life in rats; details: rat, in vivo; single dose oral administration of 5-15 mg/kg
# Description: (§1) The mean t1/2z for Compound (I) reflects the prolonged half-life of Compound (I) in humans. […] In that study, the mean human half-life of Compound (I) (approximately 11 days) was substantially higher than the 2-4 hr mean half-life observed in rats and dogs.
# [3] = Separate single dose oral study: half-life in humans; details: human, in vivo; single dose oral administration
# Description: as §1
# [4] = Part 2 MRD, 40/20 mg, N = 6, participants (percent)
# [5] = Part 2 MRD, 80/40 mg, N = 6, participants (percent)
# [6] = Part 2 MRD, 120/60 mg, N = 6, participants (percent)
# [7] = Part 2 MRD, 160/80 mg, N = 6, participants (percent)
structure (smiles),measurement,setting,value
"C[C@H](NC(=O)Cn1nnc2ccccc2c1=O)c1ccc(OC(F)(F)F)cc1 [Compound (I), (S)-2-(4-oxobenzo[d][1,2,3]triazin-3(4H)-yl)-N-(1-(4-(trifluoromethoxy)phenyl)ethyl)acetamide]",effect of treatment on average global CBF (mixed two-way ANOVA),"cerebral blood flow; Day 1, 40 mg/160 mg vs placebo, F(1, 18)=5.978, p=0.025",significant effect of treatment
same,effects on cerebral blood flow compared to placebo,cerebral blood flow; Day 1 and Day 14,widespread and robust reductions at Day 1 followed by increases at Day 14
same,effect of treatment on average global CBF (mixed two-way ANOVA),"cerebral blood flow; Day 14, 40 mg/160 mg vs placebo, F(1, 15)=3.558, p=0.079",no significant effect of treatment
same,TEAEs related to the study drug (investigator),[1]; Part 1 (SRD),None of the TEAEs were considered to be related to the study drug
same,participants who experienced a TEAE,"[1]; Part 1 (SRD), participants who received Compound (I)",20.0%
same,Any TEAE,[1]; [4],4 (66.7)
same,TEAE Mild,[1]; [4],4 (66.7)
same,TEAE Not related,[1]; [4],4 (66.7)
same,Any TEAE,[1]; [5],4 (66.7)
same,TEAE Mild,[1]; [5],4 (66.7)
same,TEAE Not related,[1]; [5],3 (50.0)
same,TEAE Related,[1]; [5],1 (16.7)
same,Any TEAE,[1]; [6],3 (50.0)
same,TEAE Mild,[1]; [6],2 (33.3)
same,TEAE Moderate,[1]; [6],1 (16.7)
same,TEAE Not related,[1]; [6],3 (50.0)
same,Any TEAE,[1]; [7],5 (83.3)
same,TEAE Mild,[1]; [7],5 (83.3)
same,TEAE Not related,[1]; [7],2 (33.3)
same,TEAE Related,[1]; [7],3 (50.0)
same,participants who experienced a TEAE,"[1]; Part 3, single dose after overnight fast of at least 10 h, tablet",11.1%
same,participants who experienced a TEAE,"[1]; Part 3, single dose following high-fat, high-calorie breakfast, tablet",22.2%
same,discontinuations due to TEAEs,"[1]; phase 1 study, all parts",No discontinuations due to TEAEs occurred
same,"deaths, serious adverse events, or other significant TEAEs","[1]; phase 1 study, all parts, 114 randomized participants","No deaths, serious adverse events, or other significant TEAEs were reported"
same,tolerability,"[1]; phase 1 study, single and repeated oral doses, healthy volunteers and patients with stable schizophrenia",generally well-tolerated
same,headache frequency vs placebo,"[1]; phase 1 study, frequency appeared to increase with higher doses",more frequently with Compound (I) than with placebo
same,half-life,[2],2 to 4 h
same,half-life,[3],~264 h
